Earlier results in patent US4127539A, “Novel hexacosapeptides, intermediates therefore and pharmaceutical compositions and methods employing said hexacosapeptides” (priority 1977, dated 1978).

What was measured:
[1] = literature, background section
[2] = system: partially purified brain opiate receptor sites; conditions: literature, background section
rat = conditions: injected directly into the brain of the rat

## H-Tyr-Gly-Gly-Phe-Met-OH [methionine enkephalin]
[1]
  activity in bioassays for opiate activity: very active
[2]
  binding to partially purified brain opiate receptor sites: binds stereo-specifically
rat
  analgesic effect: only weak analgesic agent of short duration
